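Dose response: 5 concentrations. Exposure: 48 h. Format: 96-well plates. Endpoint: linear interpolation; highest concentration if not reached. Here, GI50 denotes the concentration required for 50% inhibition of growth. TGI is the concentration that stops growth completely.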
Columns and labels:
Test in all cases: growth of human tumour cells (NCI), 48 h
[1] = tested on: DU-145 prostate
[2] = tested on: U251 CNS
[3] = tested on: SNB-75 CNS
[4] = tested on: SNB-19 CNS
[5] = tested on: MOLT-4 leukemia
[6] = tested on: SK-MEL-28 melanoma
[7] = tested on: A549 NSCLC
[8] = tested on: SF-295 CNS
[9] = tested on: RPMI-8226 leukemia
[10] = tested on: NCI-H226 lung
[11] = tested on: HOP-62 NSCLC
[12] = tested on: HOP-92 NSCLC
[13] = tested on: CAKI-1 renal
[14] = tested on: BT-549 breast
[15] = tested on: MDA-MB-435
[16] = tested on: HCC-2998 colon
[17] = tested on: T-47D breast
[18] = tested on: NCI-H23 lung
[19] = tested on: HS 578T breast
[20] = tested on: SF-539 CNS
[21] = tested on: NCI-H522 lung
[22] = tested on: PC-3 prostate
[23] = tested on: HT29 colon
[24] = tested on: SK-OV-3 ovarian
[25] = tested on: 786-0 renal
[26] = tested on: HL-60(TB) leukemia
[27] = tested on: UACC-257 melanoma
[28] = tested on: OVCAR-4 ovarian
[29] = tested on: EKVX NSCLC
[30] = tested on: SK-MEL-5 melanoma
[31] = tested on: CCRF-CEM leukemia
[32] = tested on: UO-31 renal
[33] = tested on: HCT-116 colon
[34] = tested on: A498 renal
[35] = tested on: HCT-15 colon
[36] = tested on: SN12C renal
[37] = tested on: MDA-MB-468 breast
[38] = tested on: SW-620 colon
[39] = tested on: TK-10 renal
[40] = tested on: M14 melanoma
[41] = tested on: OVCAR-5 ovarian
[42] = tested on: MCF7 breast
[43] = tested on: IGROV1 ovarian
[44] = tested on: K-562 leukemia
[45] = tested on: NCI-H460 lung
[46] = tested on: UACC-62 melanoma
[47] = tested on: MALME-3M melanoma
[48] = tested on: RXF 393 renal
[49] = tested on: MDA-MB-231 breast
[50] = tested on: SF-268 CNS
[51] = tested on: OVCAR-8 ovarian
[52] = tested on: COLO 205 colon
[53] = tested on: ACHN renal
[54] = tested on: LOX IMVI melanoma
[55] = tested on: SR leukemia
[56] = tested on: OVCAR-3 ovarian
[57] = tested on: KM12 colon
[58] = tested on: NCI/ADR-RES ovarian

O=C(c1ccc(Cl)cc1)c1ccc(OCCCN2CCN(c3ccncc3)CC2)cc1
GI50 [1]: 10.1 µM | TGI [1]: 23.6 µM | GI50 [2]: 3.98 µM | TGI [2]: 15.2 µM | GI50 [3]: 3.17 µM | TGI [3]: 18.6 µM | GI50 [4]: 9.11 µM | TGI [4]: 21.8 µM | GI50 [5]: 2.88 µM | TGI [5]: 9.07 µM | GI50 [6]: 1.99 µM | TGI [6]: 3.82 µM | GI50 [7]: 9.41 µM | TGI [7]: 23.7 µM | GI50 [8]: 2.04 µM | TGI [8]: 4.82 µM | GI50 [9]: 2.38 µM | TGI [9]: 10 µM | GI50 [10]: 4.22 µM | TGI [10]: 19.8 µM | GI50 [11]: 5.07 µM | TGI [11]: 18.3 µM | GI50 [12]: 1.54 µM | TGI [12]: 11.2 µM | GI50 [13]: 4.95 µM | TGI [13]: 19.4 µM | GI50 [14]: 2.86 µM | TGI [14]: 9.3 µM | GI50 [15]: 3.09 µM | TGI [15]: 11.5 µM | GI50 [16]: 3.01 µM | TGI [16]: 8.47 µM | GI50 [17]: 3.22 µM | TGI [17]: 18.3 µM | GI50 [18]: 2.89 µM | TGI [18]: 11.7 µM | GI50 [19]: 6.05 µM | TGI [19]: 27.7 µM | GI50 [20]: 1.77 µM | TGI [20]: 4.58 µM | GI50 [21]: 10.3 µM | TGI [21]: 23.4 µM | GI50 [22]: 3.4 µM | TGI [22]: 21.4 µM | GI50 [23]: 1.81 µM | TGI [23]: 6.41 µM | GI50 [24]: 5.1 µM | TGI [24]: 18.4 µM | GI50 [25]: 1.69 µM | TGI [25]: 3.27 µM | GI50 [26]: 1.46 µM | TGI [26]: 3.59 µM | GI50 [27]: 4.04 µM | TGI [27]: 15.7 µM | GI50 [28]: 5.07 µM | TGI [28]: 23.9 µM | GI50 [29]: 3.62 µM | TGI [29]: 15.5 µM | GI50 [30]: 1.73 µM | TGI [30]: 4.18 µM | GI50 [31]: 2.7 µM | TGI [31]: 12.2 µM | GI50 [32]: 2.36 µM | TGI [32]: 10.4 µM | GI50 [33]: 2.17 µM | TGI [33]: 11.1 µM | GI50 [34]: 16 µM | TGI [34]: 30.2 µM | GI50 [35]: 1.48 µM | TGI [35]: 4.46 µM | GI50 [36]: 10.9 µM | TGI [36]: 23.2 µM | GI50 [37]: 1.39 µM | TGI [37]: 4.38 µM | GI50 [38]: 2.57 µM | GI50 [39]: 12.3 µM | TGI [39]: 25.6 µM | GI50 [40]: 1.77 µM | TGI [40]: 3.51 µM | GI50 [41]: 10.5 µM | TGI [41]: 22.9 µM | GI50 [42]: 1.89 µM | TGI [42]: 5.16 µM | GI50 [43]: 6.59 µM | TGI [43]: 21 µM | GI50 [44]: 1.08 µM | TGI [44]: 4.8 µM | GI50 [45]: 4.81 µM | TGI [45]: 18 µM | GI50 [46]: 1.8 µM | TGI [46]: 3.63 µM | GI50 [47]: 1.79 µM | TGI [47]: 3.41 µM | GI50 [48]: 0.831 µM | TGI [48]: 6.4 µM | GI50 [49]: 4.32 µM | TGI [49]: 17.3 µM | GI50 [50]: 11.6 µM | TGI [50]: 27.9 µM | GI50 [51]: 9.52 µM | TGI [51]: 46.1 µM | GI50 [52]: 1.7 µM | TGI [52]: 3.51 µM | GI50 [53]: 8.94 µM | TGI [53]: 21.1 µM | GI50 [54]: 1.69 µM | TGI [54]: 3.25 µM | GI50 [55]: 1.7 µM | TGI [55]: 5.65 µM | GI50 [56]: 3.9 µM | TGI [56]: 17.3 µM | GI50 [57]: 4.57 µM | TGI [57]: 17 µM

Cc1ccc(/C=C/c2n(Cc3ccc4ccccc4c3)c3ccccc3[n+]2Cc2ccc3ccccc3c2)cc1
GI50 [3]: 0.729 µM | TGI [3]: 2.15 µM | GI50 [6]: 0.726 µM | TGI [6]: 2.01 µM | GI50 [8]: 0.399 µM | TGI [8]: 1.66 µM | GI50 [9]: 0.331 µM | TGI [9]: 2.3 µM | GI50 [19]: 0.382 µM | TGI [19]: 1.74 µM | GI50 [20]: 0.475 µM | TGI [20]: 1.71 µM | GI50 [58]: 1.9 µM | TGI [58]: 4.56 µM | GI50 [30]: 0.905 µM | TGI [30]: 2.11 µM | GI50 [32]: 1.44 µM | TGI [32]: 2.77 µM | GI50 [36]: 1.45 µM | TGI [36]: 2.79 µM | GI50 [41]: 1.1 µM | TGI [41]: 2.3 µM | GI50 [46]: 1.27 µM | TGI [46]: 2.56 µM | GI50 [47]: 0.465 µM | TGI [47]: 1.74 µM | GI50 [48]: 0.325 µM | TGI [48]: 1.39 µM | GI50 [50]: 1.5 µM | TGI [50]: 3.88 µM | GI50 [53]: 0.782 µM | TGI [53]: 2.03 µM

From PubChem BioAssay (NCI)
